Test results as given in patent US7632814B2, “HYD1 peptides as anti-cancer agents” (University of South Florida, priority 2006, dated 2009).
Where no end group is shown, it is not given here. [ ]: non-standard residue; d: D form.

Tests used:
caspase 8 = assay: Caspase 8 activity in H929 cells (fluorescent substrate); type: cell-based; details: 6 or 24 hrs
Procedure: Cells were treated for 6 hours (FIG. 22A) or 24 hours (FIG. 22B) and caspase 8 activity was measured using a fluorescent substrate. Shown is a representative experiment performed in triplicates. The experiment was repeated twice and similar results were obtained.
(§1) Detection of Apoptosis. A flow cytometric assay measuring Annexin V/PI staining was used to measure apoptotic cells following 24 hours of peptide exposure as previously described (Damiano J S et al. Blood, 1999; 93:1658-1667). The assay was performed in triplicate and 3 independent experiments were performed. Caspase 3 and 8 activity was measured at 6 and 24 hrs post peptide treatment per manufactures' instructions (BD Biosciences, San Jose, Calif.). The caspase assays were performed in triplicate and repeated twice.

H929 cells [1] = assay: Cell adhesion to fibronectin (crystal violet staining); type: cell-based; details: varying concentrations, 30 minutes pre-incubation, 2 hours adhesion
Procedure: FIGS. 30A and 30B are graphs showing that HYD1 but not the scrambled derivative HYD1S inhibited cell adhesion of both 8226 and H929 cells to FN. Varying concentrations of either HYD1, HYD1S, or a 1:100 dilution of either α4β1 or α5β1 integrin functional blocking antibodies was added to either (FIG. 30A) 8226 cell or (FIG. 30B) H929 cells for 30 minutes prior to adding cells to either FN or BSA coated wells. Cells were allowed to adhere for 2 hours and adherent cells were measured by crystal violet staining at 540 nm. Shown is the mean and standard deviation of a representative experiment performed in quadruplicate. Three independent experiments were performed and similar results were obtained.
Quantification of cell adhesion to fibronectin. Briefly, 8226 or H929 myeloma cells were pre-incubated with varying concentrations of either HYD1 or the scrambled peptide (HYD1S) for 30 minutes prior to allowing cells to attach to FN for two hours. Cell adhesion was detected by crystal violet staining as previously described (Damiano J S et al. Blood, 1999; 93:1658-1667; Hazlehurst L A et al. Oncogene, 2000; 19:4319-4327).

β1 integrin = target: T1, β1 integrin (Homo sapiens, UniProt P05556); assay: Binding of peptide to the cell surface
T1 construct: endogenous in cells
T1 sequence (P05556 21-798): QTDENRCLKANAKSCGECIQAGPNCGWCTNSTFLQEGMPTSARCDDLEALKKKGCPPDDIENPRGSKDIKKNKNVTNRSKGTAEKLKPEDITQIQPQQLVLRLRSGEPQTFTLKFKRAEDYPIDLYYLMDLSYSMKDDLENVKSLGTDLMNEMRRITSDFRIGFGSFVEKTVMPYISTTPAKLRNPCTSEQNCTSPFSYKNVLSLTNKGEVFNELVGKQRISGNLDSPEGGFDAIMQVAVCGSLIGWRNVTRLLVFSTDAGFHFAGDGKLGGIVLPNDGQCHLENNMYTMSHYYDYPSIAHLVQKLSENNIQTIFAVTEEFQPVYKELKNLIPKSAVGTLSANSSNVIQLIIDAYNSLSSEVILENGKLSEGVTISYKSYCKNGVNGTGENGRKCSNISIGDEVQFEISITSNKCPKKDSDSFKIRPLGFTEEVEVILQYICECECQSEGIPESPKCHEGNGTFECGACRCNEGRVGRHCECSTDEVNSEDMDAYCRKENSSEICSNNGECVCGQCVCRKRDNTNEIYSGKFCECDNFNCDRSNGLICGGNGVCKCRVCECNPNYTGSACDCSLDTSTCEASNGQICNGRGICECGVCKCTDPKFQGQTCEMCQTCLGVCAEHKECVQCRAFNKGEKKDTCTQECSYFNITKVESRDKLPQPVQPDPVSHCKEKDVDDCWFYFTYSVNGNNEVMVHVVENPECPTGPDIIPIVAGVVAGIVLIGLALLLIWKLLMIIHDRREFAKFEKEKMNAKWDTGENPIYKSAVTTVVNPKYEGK
Text: Another aspect of the invention concerns a method of identifying modulators of peptide binding (a screen for molecules that displace peptide binding). Agents that are identified as being capable of competing with the HYD1 peptides of the invention for binding to β1 integrin may have utility as cytotoxic agents for research or therapy (e.g., for cancer treatment). The method comprising providing a candidate agent (such as a chemical compound, antibody, nucleic acid, or peptide); and determining whether the agent inhibits (e.g., disrupts, prevents, or interferes with), the ability of a HYD1 peptide of the invention (HYD1 or a fragment or variant thereof) to bind to β1 integrin on a cell surface (e.g., cancer cell surface) and/or inhibit β1 integrin mediated adhesion, in vitro or in vivo (e.g., in an animal model). Preferably, the cell is a cancer cell such as a myeloma cell or a cell of other cancer types (see, for example Table 1). Preferably, the peptide is labeled with a detectable moiety (e.g., a fluorescent tag, such as […]) to facilitate the determining step. Examples of controls that may be utilized in carrying out the screening method include, but are not limited to, unlabeled HYD1 peptides (HYD1, or a fragment or variant thereof); scrambled peptides (such as HYD1S); β1 integrin blocking antibody; and non-specific surface antigen binding antibody (such as CD138 for myeloma cells). Advantageously, using the screening assay, labeled HYD1 or fragments or variants thereof, can be used to screen candidates such as small molecules, on natural product libraries, in a rapid, high-throughput fashion. […] Fluorescence polarization (FP) analysis can be used to screen small molecule or natural product libraries for discovery of novel compounds that mimic the specific binding and potentially the biological activity of HYD1. The FP assay is based on the extent of depolarization of the free versus bond peptide, which can be accurately measured on commercially available FP plate readers. […] In summary, a high throughput screen (HTS) can be used to bind small molecules prior to the addition of an HYD1 probe and molecules of interest can be identified by displacement of bond peptide, with a corresponding increase in unbound peptide by FP analysis. An analogous high-throughput binding assay based on fluorescence polarization, which allows screening for small molecules that bind to the STAT3 SH2 domain, is described in Schust J. and Berg T., Anal Biochem., 2004 Jul. 1; 330(1):114-8. […]

H929 cells [2] = assay: Detection of apoptosis, annexin V staining and FACS, suspension culture; type: cell-based
Procedure: FIG. 17 is a graph showing that HYD1 induces apoptosis as a single agent in 8226 and H929 cells cultured in suspension. 8226 and H929 cells were either treated with varying concentrations of HYD1 or vehicle control (equal volume sterile double distilled water) for 24 hours and apoptotic cells were detected by FACS analysis of annexin V positive cells. HYD1 specific apoptosis equals cell death due to peptide minus any apoptosis detected in control cells.
200 μM ZVAD-FMK was added to H929 cells for 30 minutes prior to the addition of either 75 μg/ml HYD1S or 15 μM Melphalan. Apoptosis was measured 24 hours after drug treatment by annexin/PI staining and apoptotic cells were detected by FACS analysis. Three independent experiments were performed and shown is a representative experiment.
as §1, with “A flow cytometric assay measuring Annexin V/PI staining was used to measure apoptotic cells following 24 hours of peptide exposure as previously described (Damiano J S et al.” left out
Myeloma cells were plated at a density of 400,000 cells per ml in a 24 well plate. Cells were treated with the indicated dose of the peptide for 24 hours. Following 24 hrs of peptide exposure, apoptotic cells were detected using Annexin V staining and FACS analysis. Ten thousand events were analyzed by flow cytometry (Becton Dickinson, San Jose, Calif.). Experiments were performed in triplicate and repeated twice. Shown is a representative figure.

For “kikmviswkg ([dK][dI][dK][dM][dV][dI][dS][dW][dK]G) [HYD1]”, the “caspase 8 activity” value (caspase 8) was “no caspase 8 activity was detected”, the “blocking of adhesion of H929 cells to the extracellular matrix FN” value (H929 cells [1]) was “blocks adhesion of 8226 and H929 cells to the extracellular matrix FN in a dose dependent manner” and the “binding to the cell surface” value (β1 integrin) was “bind to the cell surface”. For the same substance, the “blocking of cell surface binding by β1 integrin antibody” value (β1 integrin) was “is blocked”, the “protection from induced cell death by pan caspase inhibitor ZVAD-FMK” value (H929 cells [2]; H929 cells, 200 μM ZVAD-FMK 30 minutes prior, apoptosis at 24 hours, annexin/PI) was “only marginally protected” and the “annexin V positive cells following 6 hours of treatment” value (H929 cells [2]; H929 cells, 6 hours) was “can be detected”. The “induction of annexin V positive cells” value (H929 cells [2]; H929 cells, suspension culture, single agent, 24 hours) was “dose dependent induction of annexin V positive cells”, the “melphalan-induced apoptosis in cells cultured in suspension” value (H929 cells [2]; H929 cells, suspension, peptide with melphalan) was “increased melphalan-induced apoptosis” and the “sensitivity to HYD1 treatment, H929 compared to 8226 cells” value (H929 cells [2]; suspension culture) was “H929 cells are more sensitive”.
